The values below come from patent US11477952B2, “Endophytic microbial seed treatment formulations and methods related thereto for improved plant performance” (ADVANCED BIOLOGICAL MARKETING, INC., priority 2017, dated 2022).

The test system of this test is seedlings. Nature of the test: Preliminary and greenhouse tests of 1-octen-3-ol on plant growth. The format is in vivo. From the text: These endophytic microorganisms frequently are fully symbiotic with plants (Harman, Howell, et al., 2004). These endophytic symbionts have abilities to induce multiple beneficial effects in plants, including induced resistance to diseases and potentially other pests; resistance to abiotic stresses such as drought, salt and flooding; improved efficiency of uses of nitrogen and other plant nutrients; enhancement of seed germination and seedling vigor; and enhanced plant growth and development. There are numerous diverse genera of microbes that induce at least most of these changes in plant performance, including mycorrhizae, plant growth promoting rhizobacteria, and Basidomycetous fungi in the Sebaciles such as Piriformaspora indica. These organisms have an endophytic versus a plant pathogenic life style (Shoresh, Mastouri, et al., 2010) typical of numerous other plant-associated microorganisms. The systemic changes in plant gene expression are presumed to be induced by the production of specific triggering metabolites from these different organisms. […]
Unexpected is the effect of the OMEGA biorational seed treatments that contain the fungal metabolite 1-octen-3-ol, yeast extract and humic acid (Leonardite shale). […] Thus the quantities applied are very small and cannot grow or proliferate on or in plants so their effects were expected to be transitory. […]

Regarding `C=CC(O)CCCCC` (centres unmarked) [1-octen-3-ol], where the note is “greenhouse, 200 to 20,000 pL in different formulations, data not shown”, the seedling growth result was “plant growth promotive effects on seedling growth”. Under “very low concentrations, preliminary work”, the plant growth entry is reported as “strongly enhances plant growth”.
